Laboratory results taken from patent US20160237071A1, “T-TYPE CALCIUM CHANNEL INHIBITOR” (NISSAN CHEMICAL INDUSTRIES, LTD., priority 2013, published 2016).

target: T1, Human T-type calcium channel (Cav 3.2) (Homo sapiens, UniProt O95180); assay: Calcium influx inhibition assay; format: cell-based; settings: T-type calcium channel inhibition concentration; Cav 3.2 expressing HEK293 cells, FLIPR Calcium 4 fluorescence; read-out: C50
T1 construct: Edward Perez-Reyes, University of Virginia, USA; host or cells: HEK293
T1 sequence (O95180 whole entry): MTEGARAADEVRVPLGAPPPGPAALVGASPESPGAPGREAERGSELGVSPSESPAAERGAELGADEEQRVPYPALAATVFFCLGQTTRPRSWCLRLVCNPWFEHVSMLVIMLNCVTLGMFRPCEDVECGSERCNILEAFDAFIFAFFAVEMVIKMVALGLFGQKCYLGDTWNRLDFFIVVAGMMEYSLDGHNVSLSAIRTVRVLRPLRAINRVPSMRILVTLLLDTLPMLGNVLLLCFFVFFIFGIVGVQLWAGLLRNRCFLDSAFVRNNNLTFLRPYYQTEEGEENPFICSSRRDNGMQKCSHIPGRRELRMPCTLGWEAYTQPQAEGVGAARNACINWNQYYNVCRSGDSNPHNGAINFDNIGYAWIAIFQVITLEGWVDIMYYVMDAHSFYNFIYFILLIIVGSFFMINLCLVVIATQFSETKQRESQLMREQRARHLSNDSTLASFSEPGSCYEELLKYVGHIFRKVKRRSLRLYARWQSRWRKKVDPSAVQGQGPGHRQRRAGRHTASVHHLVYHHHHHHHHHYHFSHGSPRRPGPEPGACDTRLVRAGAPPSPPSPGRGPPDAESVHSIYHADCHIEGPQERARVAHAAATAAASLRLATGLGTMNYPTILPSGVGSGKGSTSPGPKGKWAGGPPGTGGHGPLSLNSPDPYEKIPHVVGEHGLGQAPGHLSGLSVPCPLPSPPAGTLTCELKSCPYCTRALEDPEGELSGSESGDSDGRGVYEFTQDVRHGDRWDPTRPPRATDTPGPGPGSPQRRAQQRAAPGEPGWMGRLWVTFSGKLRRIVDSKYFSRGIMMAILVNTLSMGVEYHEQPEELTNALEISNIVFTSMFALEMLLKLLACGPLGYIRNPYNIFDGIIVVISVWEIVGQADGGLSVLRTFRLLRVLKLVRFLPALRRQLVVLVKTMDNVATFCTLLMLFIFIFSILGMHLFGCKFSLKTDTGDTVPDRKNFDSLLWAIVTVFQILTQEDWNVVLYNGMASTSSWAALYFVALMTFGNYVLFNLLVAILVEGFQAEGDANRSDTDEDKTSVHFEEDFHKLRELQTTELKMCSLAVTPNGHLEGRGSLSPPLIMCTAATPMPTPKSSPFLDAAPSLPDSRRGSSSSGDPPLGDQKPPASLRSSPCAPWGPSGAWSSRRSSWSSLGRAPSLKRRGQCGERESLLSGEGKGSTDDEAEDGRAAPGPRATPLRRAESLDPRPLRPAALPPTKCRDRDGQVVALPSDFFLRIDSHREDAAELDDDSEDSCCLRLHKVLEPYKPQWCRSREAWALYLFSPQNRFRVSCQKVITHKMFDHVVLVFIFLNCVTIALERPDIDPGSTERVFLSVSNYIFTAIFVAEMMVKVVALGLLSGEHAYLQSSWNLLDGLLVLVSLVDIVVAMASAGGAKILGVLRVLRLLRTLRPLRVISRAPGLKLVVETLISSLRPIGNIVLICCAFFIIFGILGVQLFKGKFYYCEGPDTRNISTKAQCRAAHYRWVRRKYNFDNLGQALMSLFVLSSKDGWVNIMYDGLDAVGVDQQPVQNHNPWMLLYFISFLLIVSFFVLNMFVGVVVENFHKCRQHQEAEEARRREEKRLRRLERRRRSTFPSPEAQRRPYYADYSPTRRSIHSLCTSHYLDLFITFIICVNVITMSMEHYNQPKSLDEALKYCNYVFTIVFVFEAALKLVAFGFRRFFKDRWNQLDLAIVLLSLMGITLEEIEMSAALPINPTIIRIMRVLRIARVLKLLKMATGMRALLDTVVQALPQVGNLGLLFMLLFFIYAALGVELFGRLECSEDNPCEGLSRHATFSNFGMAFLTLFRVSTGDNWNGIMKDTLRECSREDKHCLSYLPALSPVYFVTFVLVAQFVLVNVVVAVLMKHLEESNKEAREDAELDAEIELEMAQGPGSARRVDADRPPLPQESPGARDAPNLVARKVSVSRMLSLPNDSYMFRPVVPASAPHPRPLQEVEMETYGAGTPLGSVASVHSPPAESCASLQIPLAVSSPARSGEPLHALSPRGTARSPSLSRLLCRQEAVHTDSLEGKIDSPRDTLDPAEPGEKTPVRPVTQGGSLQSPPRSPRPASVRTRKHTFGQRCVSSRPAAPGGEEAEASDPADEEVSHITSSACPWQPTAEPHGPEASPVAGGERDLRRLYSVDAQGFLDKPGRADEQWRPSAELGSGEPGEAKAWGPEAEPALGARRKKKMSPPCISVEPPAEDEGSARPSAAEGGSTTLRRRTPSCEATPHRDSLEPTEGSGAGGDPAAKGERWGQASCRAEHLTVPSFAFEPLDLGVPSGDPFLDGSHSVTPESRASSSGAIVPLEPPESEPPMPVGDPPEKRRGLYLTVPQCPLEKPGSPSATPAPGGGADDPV
Method: Human T-type calcium channel (Cav 3.2) expressing HEK293 cells were obtained from Prof. Edward Perez-Reyes, University of Virginia, USA. The calcium-sensitive fluorescent dye used was FLIPR Calcium 4 Assay Kit (Molecular Devices).
To a black 96-well plate with a clear bottom coated with type I collagen, the human T-type calcium channel (Cav 3.2) expressing HEK293 cells were seeded and cultured overnight, and the culture medium was removed. A solution of the calcium-sensitive fluorescent dye was added, and the whole was incubated at 37° C. in an atmosphere of 5% carbon dioxide for 30 minutes. To the plate, a diluted solution of a compound was added, and the whole was further incubated at 37° C. in an atmosphere of 5% carbon dioxide for 30 minutes. While fluorescence was continuously analyzed from the bottom with a FlexStation 3 (Molecular Devices), a calcium solution was added. […] From the rise in the fluorescence from the base line, the inhibition percentage was calculated. The logarithms of compound concentrations were plotted with respect to the inhibition activities to obtain an IC50 value (50% inhibition concentration).

Question: For `Cc1nc(N2Cc3ccc(OC(F)F)cc3C(O)C2)nc(=O)n1Cc1ccc(C(F)(F)F)s1` (stereo not drawn) [compound 53], which IC50 is on record?
Answer: 0.018 µM

Question: `O=c1nc(N2CCc3cc(OC(F)F)ccc3C2)ncn1Cc1ccc(C(F)(F)F)s1` [compound 11] was tested. Which IC50 did it give?
Answer: 0.034 µM

Question: How did the IC50 turn out when `Cc1nc(N2CCc3cc(Cl)ncc3C2)nc(=O)n1Cc1ccc(C(F)(F)F)s1` [compound 16] was run?
Answer: 0.65 µM

Question: `Cc1nc(N2Cc3ccc(OCC(N)=O)cc3C(O)C2)nc(=O)n1Cc1ccc(C(F)(F)F)s1` (stereo not drawn) [compound 45] was tested. Which IC50 did it give?
Answer: 0.32 µM

Question: `COc1ccc2c(c1)CCN(c1nc(C)n(Cc3cnc(C(F)(F)F)s3)c(=O)n1)C2` [compound 24] was tested. Which IC50 did it give?
Answer: 0.94 µM

Question: With `Cc1nc(N2CCc3c(Cl)ccc(Cl)c3C2)nc(=O)n1Cc1ccc(C(F)(F)F)s1` [compound 28] as the compound, how does the IC50 read?
Answer: 0.32 µM

Question: For `COc1ccc2c(c1)CCN(c1nc(C)n(Cc3ccc(C(F)(F)F)s3)c(=O)n1)CC2` [compound 29], which IC50 is on record?
Answer: 0.04 µM

Question: With `COc1ccc2c(c1)C(F)CN(c1nc(C)n(Cc3ccc(C(F)(F)F)s3)c(=O)n1)C2` (stereo not drawn) [compound 35] as the compound, how does the IC50 read?
Answer: 0.051 µM

Question: `N#Cc1ccc2c(c1)CN(c1ncn(Cc3ccc(C(F)(F)F)s3)c(=O)n1)CC2` [compound 6] was tested. Which IC50 did it give?
Answer: 1.8 µM

Question: Which IC50 does the source give for `COc1ccc2c(c1)C(O)CN(c1ncn(Cc3ccc(C(F)(F)F)s3)c(=O)n1)C2` (stereo not drawn) [compound 3] here?
Answer: 0.095 µM

Question: Which IC50 does the source give for `Cc1nc(N2CCc3cc(OS(=O)(=O)C(F)(F)F)ccc3C2)nc(=O)n1Cc1ccc(C(F)(F)F)s1` [compound 41] here?
Answer: 0.05 µM

Question: Which IC50 does the source give for `O=c1nc(N2CCc3cc(OCC(F)(F)F)ccc3C2)ncn1Cc1ccc(C(F)(F)F)s1` [compound 13] here?
Answer: 0.055 µM

Question: For `COc1ccc2c(c1)[C@@H](O)CN(c1nc(C)n(Cc3ccc(C(F)(F)F)s3)c(=O)n1)C2` [9a], which IC50 is on record?
Answer: 0.0049 µM

Question: `Cc1nc(N2Cc3cc4c(cc3C(O)C2)OCO4)nc(=O)n1Cc1ccc(C(F)(F)F)s1` (stereo not drawn) [compound 54] was tested. Which IC50 did it give?
Answer: 0.042 µM

Question: How did the IC50 turn out when `O=c1nc(N2CCc3cc(C(F)(F)F)ccc3C2)ncn1Cc1ccc(C(F)(F)F)s1` [compound 1] was run?
Answer: 0.062 µM

Question: With `Cc1nc(N2Cc3ccc(OCC4CC4)cc3C(O)C2)nc(=O)n1Cc1ccc(C(F)(F)F)s1` (stereo not drawn) [compound 47] as the compound, how does the IC50 read?
Answer: 0.052 µM

Question: `Cc1nc(N2CCc3sc(CO)cc3C2)nc(=O)n1Cc1ccc(C(F)(F)F)s1` [compound 20] was tested. Which IC50 did it give?
Answer: 0.4 µM

Question: Which IC50 does the source give for `COc1ccc2c(c1)C(O)CN(c1nc(C)n(Cc3cnc(C(F)(F)F)s3)c(=O)n1)C2` (stereo not drawn) [compound 25] here?
Answer: 0.45 µM

Question: With `Cc1nc(N2CCc3ccc(C(F)(F)F)cc3C2)nc(=O)n1Cc1ccc(C(F)(F)F)s1` [compound 43] as the compound, how does the IC50 read?
Answer: 0.32 µM

Question: With `CCOC(=O)c1cc2c(s1)CCN(c1nc(C)n(Cc3ccc(C(F)(F)F)s3)c(=O)n1)C2` [compound 51] as the compound, how does the IC50 read?
Answer: 0.34 µM

Question: For `Cc1ccc2c(n1)CCN(c1nc(C)n(Cc3ccc(C(F)(F)F)s3)c(=O)n1)C2` [compound 30], which IC50 is on record?
Answer: 3.2 µM

Question: For `COc1ccc2c(c1)C(=O)CN(c1nc(C)n(Cc3ccc(C(F)(F)F)s3)c(=O)n1)C2` [compound 36], which IC50 is on record?
Answer: 0.52 µM

Question: How did the IC50 turn out when `Cc1nc(N2CCn3c(nc4cc(F)ccc43)C2)nc(=O)n1Cc1ccc(C(F)(F)F)s1` [compound 59] was run?
Answer: 0.27 µM

Question: For `COc1ccc2c(c1)CCCN(c1nc(C)n(Cc3ccc(C(F)(F)F)s3)c(=O)n1)C2` [compound 49], which IC50 is on record?
Answer: 0.48 µM

Question: With `Cc1nc(N2CCc3ccccc32)nc(=O)n1Cc1ccc(C(F)(F)F)s1` [compound 34] as the compound, how does the IC50 read?
Answer: 0.75 µM

Question: Which IC50 does the source give for `COc1ccc2c(c1)C(O)CN(c1nc(C)n(Cc3ccc(C(F)(F)F)s3)c(=O)n1)C2` (stereo not drawn) [compound 4] here?
Answer: 0.02 µM

Question: With `Cc1nc(N2CCc3nc(Cl)ccc3C2)nc(=O)n1Cc1ccc(C(F)(F)F)s1` [compound 17] as the compound, how does the IC50 read?
Answer: 0.35 µM

Question: `CCOC(=O)C1Cc2ccccc2CN1c1nc(C)n(Cc2ccc(C(F)(F)F)s2)c(=O)n1` (stereo not drawn) [compound 27] was tested. Which IC50 did it give?
Answer: 2.8 µM

Question: With `Cc1nc(N2CCc3c([nH]c4cc(F)ccc34)C2)nc(=O)n1Cc1cnc(C(F)(F)F)s1` [compound 58] as the compound, how does the IC50 read?
Answer: 0.052 µM

Question: Which IC50 does the source give for `Cc1nc(N2CCc3cc(OC(F)F)ccc3C2)nc(=O)n1Cc1ccc(C(F)(F)F)s1` [compound 14] here?
Answer: 0.045 µM

Question: With `COc1cc2c(cc1OC)CN(c1ncn(Cc3ccc(C(F)(F)F)s3)c(=O)n1)CC2` [compound 2] as the compound, how does the IC50 read?
Answer: 0.54 µM

Question: `COc1ccc2c(c1)/C(=N/O)CN(c1nc(C)n(Cc3ccc(C(F)(F)F)s3)c(=O)n1)C2` [compound 37] was tested. Which IC50 did it give?
Answer: 0.13 µM

Question: How did the IC50 turn out when `COc1ccc2c(c1)C(O)CN(c1nc(C)n(Cc3ccc(F)cc3)c(=O)n1)C2` (stereo not drawn) [compound 26] was run?
Answer: 3 µM

Question: For `Cc1nc(N2CCc3nc(C4CC4)ccc3C2)nc(=O)n1Cc1ccc(C(F)(F)F)s1` [compound 31], which IC50 is on record?
Answer: 0.24 µM

Question: With `CCOc1ccc2c(c1)C(O)CN(c1nc(C)n(Cc3ccc(C(F)(F)F)s3)c(=O)n1)C2` (stereo not drawn) [compound 18] as the compound, how does the IC50 read?
Answer: 0.018 µM

Question: How did the IC50 turn out when `Cc1nc(N2CCc3c([nH]c4cc(F)ccc34)C2)nc(=O)n1Cc1ccc(C(F)(F)F)s1` [compound 57] was run?
Answer: 0.0064 µM

Question: For `COc1nc2c(s1)CN(c1nc(C)n(Cc3ccc(C(F)(F)F)s3)c(=O)n1)CC2` [compound 21], which IC50 is on record?
Answer: 0.36 µM

Question: With `Cc1nc(N2Cc3ccc(OCC(F)(F)F)cc3C(O)C2)nc(=O)n1Cc1ccc(C(F)(F)F)s1` (stereo not drawn) [compound 15] as the compound, how does the IC50 read?
Answer: 0.01 µM

Question: How did the IC50 turn out when `COc1ccc2c(c1)CN(c1nc(C)n(Cc3ccc(C(F)(F)F)s3)c(=O)n1)C2` [compound 48] was run?
Answer: 1.9 µM

Question: With `Cc1cc2c(s1)CCN(c1nc(C)n(Cc3ccc(C(F)(F)F)s3)c(=O)n1)C2` [compound 19] as the compound, how does the IC50 read?
Answer: 0.26 µM

Question: With `COc1ccc2c(c1)C(O)CN(c1nc(C)n(Cc3ccc(OS(=O)(=O)C(F)(F)F)nc3)c(=O)n1)C2` (stereo not drawn) [compound 10] as the compound, how does the IC50 read?
Answer: 0.32 µM

Question: `Cc1nc(N2Cc3ccc(OCC(F)(F)F)cc3C2)nc(=O)n1Cc1ccc(C(F)(F)F)s1` [compound 46] was tested. Which IC50 did it give?
Answer: 0.36 µM

Question: With `Cc1nc(N2CCc3cc(OCC(F)(F)F)ccc3C2)nc(=O)n1Cc1ccc(C(F)(F)F)s1` [compound 40] as the compound, how does the IC50 read?
Answer: 0.25 µM

Question: How did the IC50 turn out when `Cc1nc(N2Cc3ccc(OC(C)C)cc3C(O)C2)nc(=O)n1Cc1ccc(C(F)(F)F)s1` (stereo not drawn) [compound 38] was run?
Answer: 0.038 µM

Question: How did the IC50 turn out when `Cc1nc(N2CCc3ccccc3C2)nc(=O)n1Cc1ccc(C(F)(F)F)s1` [compound 44] was run?
Answer: 0.32 µM

Question: How did the IC50 turn out when `O=c1nc(N2CCc3cc(OS(=O)(=O)C(F)(F)F)ccc3C2)ncn1Cc1ccc(C(F)(F)F)s1` [compound 12] was run?
Answer: 0.054 µM

Question: With `Cc1nc(N2Cc3ccc(OCC(C)C)cc3C(O)C2)nc(=O)n1Cc1ccc(C(F)(F)F)s1` (stereo not drawn) [compound 39] as the compound, how does the IC50 read?
Answer: 0.075 µM

Question: `Cc1nc(N2Cc3ccc(OCC(F)(F)F)cc3C(O)C2)nc(=O)n1Cc1cnc(C(F)(F)F)s1` (stereo not drawn) [compound 23] was tested. Which IC50 did it give?
Answer: 0.34 µM

Question: How did the IC50 turn out when `Cc1nc(N2CCc3cc(OCC(F)(F)F)ccc3C2)nc(=O)n1Cc1cnc(C(F)(F)F)s1` [compound 5] was run?
Answer: 0.32 µM

Question: How did the IC50 turn out when `COc1ccc2c(c1)CN(c1nc(C)n(Cc3ccc(C(F)(F)F)s3)c(=O)n1)CC2O` (stereo not drawn) [8b] was run?
Answer: 0.79 µM

Question: With `Cc1nc(N2Cc3ccc(O)cc3C(O)C2)nc(=O)n1Cc1ccc(C(F)(F)F)s1` (stereo not drawn) [compound 42] as the compound, how does the IC50 read?
Answer: 0.29 µM

Question: For `COc1ccc2c(n1)CCN(c1nc(C)n(Cc3ccc(C(F)(F)F)s3)c(=O)n1)C2` [compound 22], which IC50 is on record?
Answer: 0.31 µM

Question: `COc1ccc2c(c1)C(N)CN(c1nc(C)n(Cc3ccc(C(F)(F)F)s3)c(=O)n1)C2` (stereo not drawn) [compound 32] was tested. Which IC50 did it give?
Answer: 0.027 µM

Question: `COc1ccc2c(c1OC)C(O)CN(c1nc(C)n(Cc3ccc(C(F)(F)F)s3)c(=O)n1)C2` (stereo not drawn) [compound 50] was tested. Which IC50 did it give?
Answer: 0.41 µM

Question: For `COc1cccc2c1C(O)CN(c1nc(C)n(Cc3ccc(C(F)(F)F)s3)c(=O)n1)C2` (stereo not drawn) [8a], which IC50 is on record?
Answer: 0.063 µM

Question: With `Cc1nc(N2CCc3cc(F)ccc3C2)nc(=O)n1Cc1ccc(C(F)(F)F)s1` [compound 52] as the compound, how does the IC50 read?
Answer: 0.29 µM

Question: Which IC50 does the source give for `COc1ccc2c(c1)[C@H](O)CN(c1nc(C)n(Cc3ccc(C(F)(F)F)s3)c(=O)n1)C2` [9b] here?
Answer: 0.13 µM
